Source: ChEMBL document CHEMBL2176881, “Development of N-[4-[6-(isopropylamino)pyrimidin-4-yl]-1,3-thiazol-2-yl]-N-methyl-4-[11C]methylbenzamide for positron emission tomography imaging of metabotropic glutamate 1 receptor in monkey brain” (J Med Chem, 2012)

Legend:
Kidney [1] = assay: Biodistribution in ddY mouse kidney at 4.8 MBq/0.1 mL after 5 mins by gamma counting; type: ADME, organism-based; settings: in vivo
Spleen [2] = assay: Biodistribution in ddY mouse spleen at 4.8 MBq/0.1 mL after 15 mins by gamma counting; type: ADME, organism-based; settings: in vivo, 0.25 h
[3] = Metabolic stability in Sprague-Dawley brain assessed as unchanged drug level at 37 MBq/0.1 mL, iv after 15 mins; type: ADME, organism-based; settings: rat, read-out: Stability
Lung [4] = assay: Biodistribution in ddY mouse lung at 4.8 MBq/0.1 mL after 60 mins by gamma counting; type: ADME, organism-based; settings: in vivo, 1 h
Muscle tissue [5] = assay: Biodistribution in ddY mouse muscle at 4.8 MBq/0.1 mL after 60 mins by gamma counting; type: ADME, organism-based; settings: in vivo, 1 h
Spleen [6] = assay: Biodistribution in ddY mouse spleen at 4.8 MBq/0.1 mL after 1 min by gamma counting; type: ADME, organism-based; settings: in vivo
Blood [7] = assay: Biodistribution in ddY mouse blood at 4.8 MBq/0.1 mL after 90 mins by gamma counting; type: ADME, organism-based; settings: in vivo, 1.5 h
Lung [8] = assay: Biodistribution in ddY mouse lung at 4.8 MBq/0.1 mL after 30 mins by gamma counting; type: ADME, organism-based; settings: in vivo, 0.5 h
Spleen [9] = assay: Biodistribution in ddY mouse spleen at 4.8 MBq/0.1 mL after 90 mins by gamma counting; type: ADME, organism-based; settings: in vivo, 1.5 h
Blood [10] = assay: Biodistribution in ddY mouse blood at 4.8 MBq/0.1 mL after 1 min by gamma counting; type: ADME, organism-based; settings: in vivo
[11] = Metabolic stability in monkey plasma assessed as unchanged drug level at 185 MBq/0.1 mL, iv after 30 mins; type: ADME, organism-based, Macaca mulatta; settings: rhesus monkey, read-out: Stability
[12] = Metabolic stability in Sprague-Dawley brain assessed as unchanged drug level at 37 MBq/0.1 mL, iv after 60 mins; type: ADME, organism-based; settings: rat, read-out: Stability
Brain [13] = assay: Biodistribution in ddY mouse brain at 4.8 MBq/0.1 mL after 30 mins by gamma counting; type: ADME, organism-based; settings: in vivo, 0.5 h
Mus musculus [14] = organism: Mus musculus; assay: Biodistribution in ddY mouse testis at 4.8 MBq/0.1 mL after 30 mins by gamma counting; type: ADME, organism-based; settings: in vivo, 0.5 h
Heart [15] = assay: Biodistribution in ddY mouse heart at 4.8 MBq/0.1 mL after 30 mins by gamma counting; type: ADME, organism-based; settings: in vivo, 0.5 h
Kidney [16] = assay: Biodistribution in ddY mouse kidney at 4.8 MBq/0.1 mL after 30 mins by gamma counting; type: ADME, organism-based; settings: in vivo, 0.5 h
Mus musculus [17] = organism: Mus musculus; assay: Biodistribution in ddY mouse large intestine at 4.8 MBq/0.1 mL after 30 mins by gamma counting; type: ADME, organism-based; settings: in vivo, 0.5 h
Hippocampus [18] = assay: Drug uptake in monkey hippocampus at 185 to 220 MBq, iv after 10 mins by PET analysis; type: ADME, organism-based, Macaca mulatta; settings: rhesus monkey, in vivo
[19] = Metabolic stability in Sprague-Dawley brain assessed as unchanged drug level at 37 MBq/0.1 mL, iv after 5 mins; type: ADME, organism-based; settings: rat, read-out: Stability
Heart [20] = assay: Biodistribution in ddY mouse heart at 4.8 MBq/0.1 mL after 90 mins by gamma counting; type: ADME, organism-based; settings: in vivo, 1.5 h
Spleen [21] = assay: Biodistribution in ddY mouse spleen at 4.8 MBq/0.1 mL after 30 mins by gamma counting; type: ADME, organism-based; settings: in vivo, 0.5 h
Liver [22] = assay: Biodistribution in ddY mouse liver at 4.8 MBq/0.1 mL after 90 mins by gamma counting; type: ADME, organism-based; settings: in vivo, 1.5 h
Pancreas [23] = assay: Biodistribution in ddY mouse pancreas at 4.8 MBq/0.1 mL after 1 min by gamma countingeas; type: ADME, organism-based; settings: in vivo
Lung [24] = assay: Biodistribution in ddY mouse lung at 4.8 MBq/0.1 mL after 1 min by gamma counting; type: ADME, organism-based; settings: in vivo
Heart [25] = assay: Biodistribution in ddY mouse heart at 4.8 MBq/0.1 mL after 60 mins by gamma counting; type: ADME, organism-based; settings: in vivo, 1 h
Pancreas [26] = assay: Biodistribution in ddY mouse pancreas at 4.8 MBq/0.1 mL after 90 mins by gamma countingeas; type: ADME, organism-based; settings: in vivo, 1.5 h
[27] = Drug uptake in monkey pons assessed as distribution volume ratio at 185 to 220 MBq, iv after 10 to 90 mins by PET analysis; type: ADME, organism-based, Macaca mulatta; settings: rhesus monkey, in vivo
Brain [28] = assay: Biodistribution in ddY mouse brain at 4.8 MBq/0.1 mL after 90 mins by gamma counting; type: ADME, organism-based; settings: in vivo, 1.5 h
Kidney [29] = assay: Biodistribution in ddY mouse kidney at 4.8 MBq/0.1 mL after 60 mins by gamma counting; type: ADME, organism-based; settings: in vivo, 1 h
Brain [30] = assay: Drug uptake in monkey brain at 185 to 220 MBq, iv after 10 to 60 mins by PET analysis in presence of unlabeled N-[4-[6-(Isopropylamino)pyrimidin-4-yl]-1,3-thiazol-2-yl]- N,4-dimethylbenzamide; type: ADME, organism-based, Macaca mulatta; settings: rhesus monkey, in vivo
Muscle tissue [31] = assay: Biodistribution in ddY mouse muscle at 4.8 MBq/0.1 mL after 1 min by gamma counting; type: ADME, organism-based; settings: in vivo
Liver [32] = assay: Biodistribution in ddY mouse liver at 4.8 MBq/0.1 mL after 15 mins by gamma counting; type: ADME, organism-based; settings: in vivo, 0.25 h
Hippocampus [33] = assay: Drug uptake in monkey hippocampus assessed as distribution volume ratio at 185 to 220 MBq, iv after 10 to 90 mins by PET analysis; type: ADME, organism-based, Macaca mulatta; settings: rhesus monkey, in vivo
[34] = Drug uptake in monkey cerebellum at 185 to 220 MBq, iv after 10 to 60 mins by PET analysis; type: ADME, organism-based, Macaca mulatta; settings: rhesus monkey, in vivo
[35] = Metabolic stability in Sprague-Dawley plasma assessed as unchanged drug level at 37 MBq/0.1 mL, iv after 15 mins; type: ADME, organism-based; settings: rat, read-out: Stability
Mus musculus [36] = organism: Mus musculus; assay: Biodistribution in ddY mouse large intestine at 4.8 MBq/0.1 mL after 15 mins by gamma counting; type: ADME, organism-based; settings: in vivo, 0.25 h
Mus musculus [37] = organism: Mus musculus; assay: Biodistribution in ddY mouse small intestine at 4.8 MBq/0.1 mL after 5 mins by gamma counting; type: ADME, organism-based; settings: in vivo
Heart [38] = assay: Biodistribution in ddY mouse heart at 4.8 MBq/0.1 mL after 1 min by gamma counting; type: ADME, organism-based; settings: in vivo
Muscle tissue [39] = assay: Biodistribution in ddY mouse muscle at 4.8 MBq/0.1 mL after 30 mins by gamma counting; type: ADME, organism-based; settings: in vivo, 0.5 h
Muscle tissue [40] = assay: Biodistribution in ddY mouse muscle at 4.8 MBq/0.1 mL after 15 mins by gamma counting; type: ADME, organism-based; settings: in vivo, 0.25 h
Liver [41] = assay: Biodistribution in ddY mouse liver at 4.8 MBq/0.1 mL after 5 mins by gamma counting; type: ADME, organism-based; settings: in vivo
[42] = Drug uptake in monkey putamen assessed as distribution volume ratio at 185 to 220 MBq, iv after 10 to 90 mins by PET analysis; type: ADME, organism-based, Macaca mulatta; settings: rhesus monkey, in vivo
Pancreas [43] = assay: Biodistribution in ddY mouse pancreas at 4.8 MBq/0.1 mL after 60 mins by gamma countingeas; type: ADME, organism-based; settings: in vivo, 1 h
[44] = Metabolic stability in Sprague-Dawley plasma assessed as unchanged drug level at 37 MBq/0.1 mL, iv after 5 mins; type: ADME, organism-based; settings: rat, read-out: Stability
Kidney [45] = assay: Biodistribution in ddY mouse kidney at 4.8 MBq/0.1 mL after 90 mins by gamma counting; type: ADME, organism-based; settings: in vivo, 1.5 h
Spleen [46] = assay: Biodistribution in ddY mouse spleen at 4.8 MBq/0.1 mL after 60 mins by gamma counting; type: ADME, organism-based; settings: in vivo, 1 h
Liver [47] = assay: Biodistribution in ddY mouse liver at 4.8 MBq/0.1 mL after 30 mins by gamma counting; type: ADME, organism-based; settings: in vivo, 0.5 h
[48] = Metabolic stability in Sprague-Dawley plasma assessed as unchanged drug level at 37 MBq/0.1 mL, iv after 60 mins; type: ADME, organism-based; settings: rat, read-out: Stability
Mus musculus [49] = organism: Mus musculus; assay: Biodistribution in ddY mouse small intestine at 4.8 MBq/0.1 mL after 30 mins by gamma counting; type: ADME, organism-based; settings: in vivo, 0.5 h

Drug uptake (Kidney [1]): 4.41 % ID/g
Drug uptake (Spleen [2]): 0.29 % ID/g
remaining at 0.25 h [3]: 95.2%
Drug uptake (Lung [4]): 0.2 % ID/g
Drug uptake (Muscle tissue [5]): 0.07 % ID/g
Drug uptake (Spleen [6]): 1.74 % ID/g
Drug uptake (Blood [7]): 0.02 % ID/g
Drug uptake (Lung [8]): 0.31 % ID/g
Drug uptake (Spleen [9]): 0.02 % ID/g
Drug uptake (Blood [10]): 3.09 % ID/g
remaining at 0.5 h [11]: 35.8%
remaining at 1 h [12]: 98.2%
Drug uptake (Brain [13]): 1.59 % ID/g
Drug uptake (Mus musculus [14]): 0.22 % ID/g
Drug uptake (Heart [15]): 0.09 % ID/g
Drug uptake (Kidney [16]): 0.56 % ID/g
Drug uptake (Mus musculus [17]): 2.32 % ID/g
Drug uptake (Hippocampus [18]): Active
remaining at 5 min [19]: 94%
Drug uptake (Heart [20]): 0.01 % ID/g
Drug uptake (Spleen [21]): 0.07 % ID/g
Drug uptake (Liver [22]): 0.3 % ID/g
Drug uptake (Pancreas [23]): 4.48 % ID/g
Drug uptake (Lung [24]): 5.48 % ID/g
Drug uptake (Heart [25]): 0.06 % ID/g
Drug uptake (Pancreas [26]): 0.04 % ID/g
Ratio [27]: 1
Drug uptake (Brain [28]): 0.62 % ID/g
Drug uptake (Kidney [29]): 0.22 % ID/g
Drug uptake (Brain [30]): Not Active
Drug uptake (Muscle tissue [31]): 2.59 % ID/g
Drug uptake (Liver [32]): 4.89 % ID/g
Ratio (Hippocampus [33]): 1.8
Drug uptake [34]: Active
remaining at 0.25 h [35]: 47.6%
Drug uptake (Mus musculus [36]): 1.2 % ID/g
Drug uptake (Mus musculus [37]): 66.76 % ID/g
Drug uptake (Heart [38]): 4.93 % ID/g
Drug uptake (Muscle tissue [39]): 0.13 % ID/g
Drug uptake (Muscle tissue [40]): 0.23 % ID/g
Drug uptake (Liver [41]): 11.38 % ID/g
Ratio [42]: 1.5
Drug uptake (Pancreas [43]): 0.03 % ID/g
remaining at 5 min [44]: 67.9%
Drug uptake (Kidney [45]): 0.11 % ID/g
Drug uptake (Spleen [46]): 0.02 % ID/g
Drug uptake (Liver [47]): 1.43 % ID/g
remaining at 1 h [48]: 33.9%
Drug uptake (Mus musculus [49]): 16.53 % ID/g
Compound: CC(C)Nc1cc(-c2csc(N(C)C(=O)c3ccc([14CH3])cc3)n2)ncn1
